US12565661B2, “Compositions and methods for weed control” (Syngenta Crop Protection AG, priority 2019, dated 2026)
Several values for one entry are separate records, joined by “and”; a condition that tells them apart may be missing. Equal values may be shown once.

Legend:
Assay type in all cases: in vivo
[1] = tested on: Nicotiana tabacum Samsun wild type and transgenic lines (plantlets); assay: Tolerance of transgenic tobacco T1 lines in liquid culture, bleaching damage score; details: after 7 days
Method: Nicotiana tabacum Samsun wild type and transgenic lines were sterilized by placing in 30 ml Universals containing approximately 15 ml freshly made 2% Virkon and rotated on a roller for 15 mins. The Virkon was pipetted off using an extended fine tip mini pastette and the seed washed 4 times with 1% PPM (Plant Preservative Mixture, P820, 250 ml. Apollo Scientific Ltd.)
Seed was germinated on 90 mm Petri dishes containing 1/3 MS+0.8% agarose (SPI, Duchefa #DU 0463). pH5.7 (for WT) and 1/3 MS+0.8% agarose+100 ug/ml kanamycin (for the transgenic). Approximately 100 seed of each was spread on to each Petri dish. NB the transgenic seed is not homozygous therefore was plated on Kan to select. (MS=Murashige & Skoog MS Medium, #M0221, Melford Labs).
Plates were placed in a clear plastic “incubating box” (lids under plate) and incubated in a controlled environment room with the following conditions: • Temperature: Day 25° C./Night 25° C. • Light settings: Photo period 16 hours, Light level ˜50 μmol/m^2/s Dose Response Test:
7 day old tobacco plantlets (3 plantlets per well) were transferred aseptically to 24 well plates (cell-culture cluster flat bottom with lid) (Corning Costar #3524) containing 2 ml % MS+30 mM sucrose (Fisher #10638403), pH5.7 per well. Herbicide 2 was two-fold serially diluted in DMSO starting at 10 ppm and added to the media. DMSO only was added to the zero compound control wells. NB.
Plates were placed in clear plastic “Incubating boxes” (lid under plate) and incubated for 2 weeks in a controlled environment room with the following conditions: • Temperature: Day 24° C./Night 18° C. • Light settings: Photo period 16 hours, Light level 600 μmol/m^2/s. Assessment:
Plantlets were assessed visually for bleaching symptomology after 7 days and a damage score given for each well.

[2] = tested on: transgenic tobacco expressing SDPS genes and wild-type Samsun tobacco; assay: Herbicide tolerance of transgenic tobacco sprayed with 1000 g/ha Herbicide Compound 1, visual damage score; details: for Average Damage (%): 1000 g/ha spray, average across population
Source text: Populations of transgenic tobacco comprising 20-30 transgenic events per plant transformation constructs were generated as described in example 4. These lines were clonally propagated and 1 clone per event was sprayed with 1000 g/ha of Herbicide Compound 1. Herbicidal damage was visually assessed across the population and a herbicide damage score given at 7 and 14 days. […] indicates no visible damage or stunting whereas a score of 100 indicates a complete death of the plant.
The results in FIG. 3 show the damage scores for 4 populations of plants expressing either Arabidopsis SDPS2 gene (SEQ ID NO.2), the Arabidopsis SDPS2 F240L mutated gene (SEQ ID NO.3). the Chlorella fusca SDPS gene (SEQ ID NO. 10) or the Chlorella fusca SDPS F227L mutated gene (SEQ ID NO.11). A control population of wild-type Samsun tobacco was also assessed for herbicide damage. […] The Arabidopsis gene (SEQ ID NO.2) performs better than the Chlorella wild-type gene in terms of herbicide tolerance and this tolerance is again improved by the addition of the F240L mutation (SEQ ID NO.3).

[3] = tested on: transgenic tobacco overexpressing Arabidopsis SDPS F240L gene and wild-type tobacco; assay: Herbicide damage of transgenic tobacco sprayed with 75 g/ha Aclonifen or 25 g/ha herbicide Z; details: 7 days post treatment; for average herbicide damage score: 75 g/ha
Method: A further set of transgenic tobacco overexpressing the Arabidopsis SDPS F240L gene (SEQ ID NO.3) were created as described above. These plants were sprayed with 75 g/ha Aclonifen or 25 g/ha herbicide Z. The plants were assessed for herbicide damage at 7 days post treatment and compared to wild-type tobacco plants.
Numerous transgenic tobacco events expressing the Arabidopsis SDPS2 F240L gene (SEQ ID NO.3) show no damage from the herbicide treatment in contrast to the damage seen on the control plants. The average herbicide damage scores for the transgenic tobacco population versus the control wild-type plants are shown in table 6.

## CCOC(=O)C(C)N(c1c(C)cccc1C)S(=O)(=O)CC (stereo not shown) [Herbicide Compound Ex. 2]
[1]; 0.75 ppm, WT (Samsun)
  bleaching damage score (two replicate plates a/b): 0/0
[1]; 0.75 ppm, tobacco line ARA SDPS1
  bleaching damage score (two replicate plates a/b): 0/0
[1]; 0.75 ppm, tobacco line ARA SDPS F240V 1
  bleaching damage score (two replicate plates a/b): 0/0
[1]; 1.25 ppm, WT (Samsun)
  bleaching damage score (two replicate plates a/b): 0/0
[1]; 1.25 ppm, tobacco line ARA SDPS1
  bleaching damage score (two replicate plates a/b): 0/0
[1]; 1.25 ppm, tobacco line ARA SDPS F240V 1
  bleaching damage score (two replicate plates a/b): 0/0
[1]; 2.5 ppm, WT (Samsun), listed as Herbicide 2
  bleaching damage score (two replicate plates a/b): 25/25 and 50/50
[1]; 2.5 ppm, tobacco line ARA SDPS1, listed as Herbicide 2
  bleaching damage score (two replicate plates a/b): 50/50 and 50/25 and 25/25
[1]; 2.5 ppm, tobacco line ARA SDPS F240V 1
  bleaching damage score (two replicate plates a/b): 25/25
[1]; 5 ppm, WT (Samsun), listed as Herbicide 2
  bleaching damage score (two replicate plates a/b): 90/100 and 95/90
[1]; 5 ppm, tobacco line ARA SDPS1, listed as Herbicide 2
  bleaching damage score (two replicate plates a/b): 100/100 and 90/80 and 80/95
[1]; 5 ppm, tobacco line ARA SDPS F240V 1, listed as Herbicide 2
  bleaching damage score (two replicate plates a/b): 50/50 (2×) and 50/25
[1]; 10 ppm, WT (Samsun), listed as Herbicide 2
  bleaching damage score (two replicate plates a/b): 100/100 and 95/100
[1]; 10 ppm, tobacco line ARA SDPS1
  bleaching damage score (two replicate plates a/b): 100/100
[1]; 10 ppm, tobacco line ARA SDPS F240V 1, listed as Herbicide 2
  bleaching damage score (two replicate plates a/b): 90/100 (2×) and 100/100

## CCOC(=O)C(CC)N(c1c(C)cccc1C)S(=O)(=O)CCl (stereo not shown) [Herbicide Compound Ex. 1]
[2]; WT Control tobacco
  Average Damage (%): 23.125%
[2]; tobacco with construct pBin TMV AraSDPS2
  Average Damage (%): 13.25%
[2]; tobacco with construct pBin TMV AraSDPS2_F240L
  Average Damage (%): 5%
[2]; tobacco with construct pBin TMV CfSDPS
  Average Damage (%): 25%
[2]; tobacco with construct pBin TMV CfSDPS_F227L
  Average Damage (%): 10.05%
[2]; tobacco expressing Chlorella fusca SDPS F227L (SEQ ID NO.11)
  tolerance to herbicide (in words): does display increased tolerance
[2]; tobacco overexpressing Chlorella fusca SDPS (SEQ ID NO. 10)
  tolerance to herbicide (in words): does not increase tolerance

## Nc1c([N+](=O)[O-])ccc(Oc2ccccc2)c1Cl [Aclonifen]
[3]; Wild type tobacco
  average herbicide damage score: 40
[3]; pBin AraSDPS2 F240L transgenic tobacco
  average herbicide damage score: 16.17
[3]; wild type tobacco, individual control plants, Aclonifen 75 g/ha spray
  herbicide damage score: 35 (4×) and 30 (2×) and 60 (2×)
